According to patent publication US20160331771A1, “Treatment of Hyperproliferative Disorders Using Cardiac Glycosides” (EpicentRx, Inc., priority 2008, published 2016):

Key:
[1] = not given; remark: listed apart in the source
[2] = when used alone; cited from earlier work
[3] = Example 2: two siblings given digoxin daily; type: in vivo, human; settings: for improvement in pain levels and functionality: both patients
Experimental: Two siblings with severe rheumatoid arthritis characterized by progressive pain, stiffness and swelling of joints in spite of treatment with NSAIDs, narcotics, and immunosuppressants were given 0.125 mg of digoxin daily. No response was noted until the 5th day of treatment at which time both patients reported about a 10% improvement in pain levels and functionality, 2 weeks later the dose of digoxin was doubled to 0.25 mg and the patients both noted a proportional improvement in pain levels and functionality to 20%.

CN(Cc1cnc2nc(N)nc(N)c2n1)c1ccc(C(=O)N[C@@H](CCC(=O)O)C(=O)O)cc1 [Methotrexate]
effectiveness of prior therapy (Methotrexate 5-10 mg q week with calcipotriene, phototherapy and NSAIDs, prior 4 months): moderately effective

C[C@H]1O[C@@H](O[C@H]2[C@@H](O)C[C@H](O[C@H]3[C@@H](O)C[C@H](O[C@H]4CC[C@@]5(C)[C@H](CC[C@@H]6[C@@H]5C[C@@H](O)[C@]5(C)[C@@H](C7=CC(=O)OC7)CC[C@]65O)C4)O[C@@H]3C)O[C@@H]2C)C[C@H](O)[C@@H]1O [digoxin, 4-[(3S,5R,8R,9S,10S,12R,13S,14S,)-3-[(2S,4S,5R,6R)-5-[(2S,4S,5R,6R)-5-[(2S,4S,5R,6R)-4,5-dihydroxy-6-methyl-oxan-2-yl]oxy-4-hydroxy-6-methyl-oxan-2-yl]oxy-4-hydroxy-6-methyl-oxan-2-yl]oxy-12,14-dihydroxy-10,13-dimethyl-1,2,3,4,5,6,7,8,9,11,12,15,16,17-tetradecahydrocyclopenta[a]phenanthren-17-yl]-5H-furan-2-one]
regression of wound area ([1]; 0.125 mg of digoxin, within 3 days): about 20% | plasma digoxin concentration at which adverse reactions are rare [2]: < 0.8 µg/L | improvement in pain levels and functionality ([3]; 0.125 mg of digoxin daily, 5th day of treatment): ~10% | side effects ([3]; digoxin 0.125 mg then 0.25 mg): No side effects | improvement in pain levels and functionality ([3]; dose doubled to 0.25 mg 2 weeks later): 20% | joint pain (for one month, next monthly visit): abated | psoriasis at follow up (remained on 0.125 mg of digoxin, 2 months later, elbows and ankles, with return of joint pain): mild recrudescence

OC(Cn1cncn1)(Cn1cncn1)c1ccc(F)cc1F [fluconazole]
change in the affected area ([1]; 1 week of treatment, before digoxin): no change
